The text below walks through data of PubChem BioAssay AID608 (Sanford-Burnham Center for Chemical Genomics, 2007).

Each structure is given as a SMILES string. Activity calls are given as the source filed them. No rule for the calls is given here.

This assay deals with Peptidyl-prolyl cis-trans isomerase FKBP1A (Homo sapiens) (UniProt P62942). Put plainly: small-molecule binding to FKBP12 – biophysical, NMR detection (AID 608). As to conditions: purified FKBP12.
Sequence of Peptidyl-prolyl cis-trans isomerase FKBP1A (Homo sapiens) (P62942 whole entry, looked up): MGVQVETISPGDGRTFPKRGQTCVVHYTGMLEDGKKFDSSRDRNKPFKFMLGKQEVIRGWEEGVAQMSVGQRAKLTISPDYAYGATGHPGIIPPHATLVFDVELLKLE
With `C[C@@H]1O[C@@H](O[C@H]2CC[C@]3(C=O)C4CC[C@]5(C)[C@@H](C6=CC(=O)OC6)CC[C@]5(O)C4CC[C@]3(O)C2)[C@H](O)[C@H](O)[C@H]1O` (stereo not given in full), the Kd (usually the concentration at which binding is half-saturated) is > 4 mM (inactive).

For `CN1CCN(C(=O)Nc2cccc3ccccc23)CC1`, the Kd was > 4 mM (inactive).

Consider `COC(=O)C[C@H]1C(C)(C)C(=O)[C@@H]2CC3=C(CC[C@]4(C)C3=CC(=O)O[C@H]4c3ccoc3)C1(C)C2=O`, for which the Kd is > 4 mM (inactive).

For the compound `CN1C(=O)C2C=CC1C1C(=O)N(c3ccccc3)C(=O)C21` (stereo not given), the Kd is > 4 mM (inactive).

On to `Cc1onc(-c2c(F)cccc2Cl)c1C(N)=O`, for which the Kd was > 4 mM (inactive).

`O=S1(=O)NC(=NCc2ccccc2)c2ccccc21`: the Kd was > 4 mM (inactive).

Consider `c1nnc2c3c4c(sc3ncn12)CCCC4`, for which the Kd was > 4 mM (inactive).

With `CNC(=O)N1CCN(C(=O)NC)CC1`, the Kd is > 4 mM (inactive).

`O=C(NC1=NCCS1)c1cccc(F)c1`: the Kd was > 4 mM (inactive).

As for `O=S(=O)(Cc1ccccc1Cl)Nc1ccccn1`, the Kd is > 4 mM (inactive).

Consider `O=C1C2C3C=CC(C3)C2C(=O)N1c1cccnc1` (stereo not given), for which the Kd is > 4 mM (inactive).

Turning to `NC(=O)c1ccccc1NC(=O)C1CC1`, the Kd was > 4 mM (inactive).

With `Cc1oc(-c2ccccc2)nc1CC(=O)O`, the Kd was > 4 mM (inactive).

For the compound `Cc1cc(NC(=O)CCCn2cnc([N+](=O)[O-])n2)no1`, the Kd was > 4 mM (inactive).

As to `NS(=O)(=O)c1ccc(NC(=O)C(F)(F)F)cc1`, the Kd was > 4 mM (inactive).

In the case of `NCCN=C1NS(=O)(=O)c2ccccc21`, the Kd is > 4 mM (inactive).

For `Cc1ccc(Cl)cc1NS(=O)(=O)N1CCCCC1`, the Kd entry was “inactive”.

Regarding `O=c1c2ccccc2oc2ccccc12`, the Kd is > 4 mM (inactive).

With `Cc1ccc(NS(=O)(=O)N2CCCCC2)c(C)c1`, the Kd is 0.436 mM.

Consider `CSc1nc(O)cc(=O)[nH]1`, for which the Kd is > 4 mM (inactive).

Take `Cc1cc(N)cc(C)c1OCC(=O)N1CCOCC1`: the Kd was > 4 mM (inactive).

`CC(=O)O[C@H]1C[C@@H](OC(C)=O)C(C)(C)C2C[C@@H](OC(C)=O)[C@]3(C)C(CC[C@@]4(C)[C@H](c5ccoc5)C(=O)[C@H]5O[C@]543)[C@]21C` (stereo not given in full): the Kd was > 4 mM (inactive).

For `O=C1NC(=O)C(Cc2ccccc2)C(=O)N1`, the Kd was > 4 mM (inactive).

As for `Cc1oc(S(=O)(=O)N2CCCCC2)cc1C(=O)O`, the Kd was > 4 mM (inactive).

`COc1c(-c2coc3cc4c(cc3c2=O)CC(O)C(C)(C)O4)ccc2c1C=CC(C)(C)O2` (stereo not given): the Kd was > 4 mM (inactive).

As to `O=C1CC[C@]23/C=C/C(=O)NCCCCNCCCNC(=O)/C=C/c4ccc(c2c4)O[C@@H]3C1`, the Kd was > 4 mM (inactive).

On to `CC1=C(C(=O)Nc2ccccc2)SCCO1`, for which the Kd is > 4 mM (inactive).

On to `Cc1nc(-c2ccccc2)sc1CN`, for which the Kd was > 4 mM (inactive).

As to `COC(=O)CSc1ncnc2c(C)csc12`, the Kd is > 4 mM (inactive).

As to `CC(=O)C1=C(O)C(=O)NC1c1ccccc1` (stereo not given), the Kd was > 4 mM (inactive).

Regarding `Nc1csc(C(=O)O)c1`, the Kd is > 4 mM (inactive).

On to `O=C(Nc1ccccc1CO)c1ccccc1F`, for which the Kd was > 4 mM (inactive).

Consider `NC(=O)Cn1cnc(-c2ccc(F)cc2)c1`, for which the Kd was > 4 mM (inactive).

Take `COc1ccccc1NC(N)=S`: the Kd is > 4 mM (inactive).

Consider `O=C1CCCc2c1nc(-c1ccccc1)n2O`, for which the Kd is > 4 mM (inactive).

For the compound `N/N=C/c1cccnc1`, the Kd is > 4 mM (inactive).

As for `Cc1nccn1CCC(=O)O`, the Kd is > 4 mM (inactive).

In the case of `Cn1c(=O)n(CC(=O)Nc2cccnc2)c2ccccc21`, the Kd was > 4 mM (inactive).

For `O=C(c1ccccc1)c1ccccc1C(=O)N1CCOCC1`, the Kd was > 4 mM (inactive).

Consider `O=C(CSc1ncn[nH]1)c1ccc2c(c1)OCCO2`, for which the Kd was > 4 mM (inactive).
